{"source": "patent US20160082019A1", "about": "“Drug Combinations to Treat Cancer” (EXELIXIS, INC., priority 2013, published 2016)", "origin": "cited, not measured here", "conditions": "cabozantinib alone; in some cases normalized; independent of PSA declines"}
{"smiles": "COc1cc2nccc(Oc3ccc(NC(=O)C4(C(=O)Nc5ccc(F)cc5)CC4)cc3)c2cc1OC", "note": "[Cabozantinib, N-(4-{[6,7-bis(methyloxy)quinolin-4-yl]oxy}phenyl)-N′-(4-fluorophenyl)cyclopropane-1,1-dicarboxamide]", "values": [{"measurement": "uptake on bone scans", "value": "decrease uptake on bone scans"}]}
